Test results from patent US20230356105A1, “TETRAAZADODECANE BASED CHELATING AGENTS FOR SEPARATION OF RARE EARTH ELEMENTS AND METHOD THEREFOR” (Ustav Organicke Chemie a Biochemie AV CR V.V.I., priority 2020, published 2023).

Columns and labels:
[1] = Ultrafiltration to remove benzoic acid and effect precipitation of L5 complexes (Example 26); type: physicochemical
Experimental: Stock solutions were pipetted into a 20 mL glass vial to prepare the reaction mixture: • 1. 938 μL 196 mM aqueous chelator L5 (pH=4) • 2. 836 μL 1000 mM aqueous benzoic acid (stock solution containing 1 equivalent NaOH) • 3. 8000 μL H2O • 4. 952 μL 175.5 mM aqueous LnCl3 solution (from a stock solution containing a mixture of Ln=Nd, Pr, Tb, and Dy, in a ratio of 3.3:1:1:1, Nd:Pr:Tb:Dy)
The reaction solution was then titrated to pH 6.5 by addition of aqueous 2 M NaOH. The solution was stirred on a magnetic stir-plate at room temperature for 1 hour, and the precipitate was removed from the solution by filtration through a 0.45 μtm regenerated cellulose syringe filter. From this filtered solution, 1 mL was set aside for elemental analysis as the “initial” solution, 1 mL was set aside as a “control” solution in a clean 4 mL glass vial with a PTFE-coated stir bar to be stirred at 600 rpm at room temperature on a magnetic stirrer, and the remaining 9 mL were diluted slightly by addition of 2 mL H2O, then filtered on an ultrafiltration system with a nanofiltration membrane with molecular weight cut-off of 100-250 Da (NFS membrane, Synder Filtration, CA, USA), 4 bar N2 to pressurize the system, magnetic stiffing at 250 rpm, and continual addition of water to replace the filtered volume. The filtrate was collected in an Erlenmeyer flask, and a total volume of 50 mL was filtered over 11 hours. After this time, the “retained” reaction mixture, now having a volume of 10.5 mL and with some precipitate present, was transferred to a clean 20 mL glass vial and stirred by PTFE-coated stir bar on a magnetic stirrer at 600 rpm for an additional 10 hours, as was the control solution. After this additional time, samples of both the control solution and the retained solution from the ultrafiltration were prepared for elemental analysis by filtration through 0.45 μm nylon syringe filters. The initial, control, and retained solutions were then analysed by ICP-OES for determination of absolute Nd, Pr, Dy, and Tb content.

[2] = Separation of binary mixture of rare-earth metals by precipitation using L1, MOPS pH 8.5 (Example 8); type: physicochemical; settings: supernatant
Experimental: Analogous to Example 7), the well plate was then centrifuged and concentrations of the metals were determined using ICP-OES. The resulting concentrations of both metals in the supernatants and their ratios are summarized in […]

[3] = control solution, stirred without ultrafiltration
[4] = initial solution (L5 + benzoic acid, pH 6.5, filtered)
[5] = retained solution after ultrafiltration (100-250 Da membrane)
[6] = retained*, recalculated from end volume 10.5 to original 9.0 mL

O=C(O)CN1CCN(CC(=O)O)CCN(Cc2cccc3ccccc23)CCN(CC(=O)O)CC1 [L5, 2,2′,2″-(10-(naphthalene-1-ylmethyl)-1,4,7,10-tetraazacyklododekane-1,4,7-triyl)triacetic acid]
concentration Dy [1, 3]: 760 µM
concentration Nd [1, 3]: 1800 µM
concentration Pr [1, 3]: 400 µM
concentration Tb [1, 3]: 750 µM
concentration sum of M [1, 3]: 3710 µM
concentration Dy [1, 4]: 770 µM
concentration Nd [1, 4]: 1800 µM
concentration Pr [1, 4]: 400 µM
concentration Tb [1, 4]: 760 µM
concentration sum of M [1, 4]: 3730 µM
concentration Dy [1, 5]: 440 µM
concentration Nd [1, 5]: 1030 µM
concentration Pr [1, 5]: 230 µM
concentration Tb [1, 5]: 420 µM
concentration sum of M [1, 5]: 2120 µM
concentration Dy [1, 6]: 510 µM
concentration Nd [1, 6]: 1200 µM
concentration Pr [1, 6]: 270 µM
concentration Tb [1, 6]: 490 µM
concentration sum of M [1, 6]: 2470 µM

O=C(O)CN1CCN(CC(=O)O)CCN(Cc2ccccc2)CCN(CC(=O)O)CC1 [L1, 2,2′,2″-(10-benzyl-1,4,7,10-tetraazacyclododecane-1,4,7-triyl)triacetic Acid]
[mM] M1 ([2]; M1=Ce, M2=Er): 0.280 mM
[mM] M1 ([2]; M1=Ce, M2=Tm): 0.425 mM
[mM] Tm ([2]; M1=Ce, M2=Tm): 2.035 mM
M1/Er ([2]; M1=Ce): 0.51
[mM] M1 ([2]; M1=Dy, M2=Er): 0.338 mM
[mM] M1 ([2]; M1=Dy, M2=Tm): 0.362 mM
[mM] Tm ([2]; M1=Dy, M2=Tm): 2.382 mM
M1/Er ([2]; M1=Dy): 0.34
[mM] M1 ([2]; M1=Er, M2=Er): 4.969 mM
[mM] M1 ([2]; M1=Er, M2=Tm): 2.759 mM
[mM] Tm ([2]; M1=Er, M2=Tm): 3.368 mM
M1/Er ([2]; M1=Er): 1.00
[mM] Er ([2]; M1=Eu, M2=Er): 0.680 mM
[mM] M1 ([2]; M1=Eu, M2=Er): 0.244 mM
[mM] M1 ([2]; M1=Eu, M2=Tm): 0.244 mM
[mM] Tm ([2]; M1=Eu, M2=Tm): 2.091 mM
M1/Er ([2]; M1=Eu): 0.36
[mM] Er ([2]; M1=Gd, M2=Er): 0.972 mM
[mM] M1 ([2]; M1=Gd, M2=Er): 0.402 mM
[mM] M1 ([2]; M1=Gd, M2=Tm): 0.254 mM
[mM] Tm ([2]; M1=Gd, M2=Tm): 1.814 mM
M1/Er ([2]; M1=Gd): 0.41
[mM] M1 ([2]; M1=Ho, M2=Er): 0.496 mM
[mM] M1 ([2]; M1=Ho, M2=Tm): 0.521 mM
[mM] Tm ([2]; M1=Ho, M2=Tm): 2.329 mM
M1/Er ([2]; M1=Ho): 0.60
[mM] M1 ([2]; M1=La, M2=Er): 0.368 mM
[mM] M1 ([2]; M1=La, M2=Tm): 0.616 mM
[mM] Tm ([2]; M1=La, M2=Tm): 2.425 mM
M1/Er ([2]; M1=La): 0.57
[mM] M1 ([2]; M1=Lu, M2=Er): 7.607 mM
[mM] M1 ([2]; M1=Lu, M2=Tm): 7.337 mM
[mM] Tm ([2]; M1=Lu, M2=Tm): 4.588 mM
M1/Er ([2]; M1=Lu): 1.67
[mM] Er ([2]; M1=Nd, M2=Er): 0.692 mM
[mM] M1 ([2]; M1=Nd, M2=Er): 0.280 mM
[mM] M1 ([2]; M1=Nd, M2=Tm): 0.315 mM
[mM] Tm ([2]; M1=Nd, M2=Tm): 1.892 mM
M1/Er ([2]; M1=Nd): 0.40
[mM] M1 ([2]; M1=Pr, M2=Er): 0.210 mM
[mM] M1 ([2]; M1=Pr, M2=Tm): 0.298 mM
[mM] Tm ([2]; M1=Pr, M2=Tm): 2.016 mM
M1/Er ([2]; M1=Pr): 0.32
[mM] M1 ([2]; M1=Sc, M2=Er): 5.191 mM
[mM] M1 ([2]; M1=Sc, M2=Tm): 5.087 mM
[mM] Tm ([2]; M1=Sc, M2=Tm): 4.448 mM
M1/Er ([2]; M1=Sc): 1.16
[mM] Er ([2]; M1=Sm, M2=Er): 0.734 mM
[mM] M1 ([2]; M1=Sm, M2=Er): 0.197 mM
[mM] M1 ([2]; M1=Sm, M2=Tm): 0.218 mM
[mM] Tm ([2]; M1=Sm, M2=Tm): 2.090 mM
M1/Er ([2]; M1=Sm): 0.27
[mM] M1 ([2]; M1=Tb, M2=Er): 0.225 mM
[mM] M1 ([2]; M1=Tb, M2=Tm): 0.225 mM
[mM] Tm ([2]; M1=Tb, M2=Tm): 2.342 mM
M1/Er ([2]; M1=Tb): 0.28
[mM] M1 ([2]; M1=Tm, M2=Er): 3.971 mM
[mM] M1 ([2]; M1=Tm, M2=Tm): 4.779 mM
[mM] Tm ([2]; M1=Tm, M2=Tm): 4.779 mM
M1/Er ([2]; M1=Tm): 1.73
[mM] M1 ([2]; M1=Y, M2=Er): 0.503 mM
[mM] M1 ([2]; M1=Y, M2=Tm): 0.480 mM
[mM] Tm ([2]; M1=Y, M2=Tm): 2.367 mM
M1/Er ([2]; M1=Y): 0.56
[mM] M1 ([2]; M1=Yb, M2=Er): 5.400 mM
[mM] M1 ([2]; M1=Yb, M2=Tm): 5.477 mM
[mM] Tm ([2]; M1=Yb, M2=Tm): 4.598 mM
M1/Er ([2]; M1=Yb): 1.25
